Test results published in patent US7615238B2, “Plaster for the treatment of dysfunctions and disorders of nails, comprising sertaconazole” (Trommsdorff GmbH & Co. KG Arzneimitttel, priority 2001, dated 2009).

Tested on: fungi such as Trichophyton mentagrophytes, Trichophyton rubrum, Candida albicans, Microsporum canis, Aspergillus niger
Test: Efficacy against fungi in comparison with other antifungal agents
Settings: in most cases, Trichosporum, Alternaria, Acremonium, Fusarium, Scopulariopsis

(R,S)-1-[2-[(7-Chloro-3-benzo[b]thienyl)-methoxy]-2-(2,4-dichlorophenyl)-ethyl]-1H-imidazole [sertaconazole]
efficacy against fungi in comparison with econazole, ketonazole, miconazole, or bifonazole: higher efficacy
